What was measured:
TF-1 cells = assay: cell proliferation assay using TF-1 cells (tritiated thymidine incorporation); format: cell-based, human; details: 72 hours at 37° C., tritiated thymidine for the final four hours
Method: The potency of the purified recombinant fusion protein was evaluated in a cell proliferation assay using TF-1 cells. TF-1 cells are a continuous cell line derived from human erythroid leukemia cells, and are dependent on IL-3 or GM-CSF for growth. TF-1 cells were maintained in medium containing GM-CSF. Prior to being used in an assay, the cells were washed free of GM-CSF, and resuspended to a concentration of 5×10^4 cells/ml in assay medium (Iscove's Modification of Dulbecco's Medium). The suspended cells were added to the wells of a 96-well microtiter plate containing dilutions of the recombinant fusion protein preparation, positive controls, or negative controls. The cells were incubated at 37° C. for 72 hours; proliferation was measured by adding tritiated thymidine for the final four hours of the incubation. The cells were harvested onto glass fiber filters, and the amount of radioactivity incorporated was determined by scintillation counting.

GM-CSF receptor = molecular target: T1, GM-CSF receptor (Homo sapiens, UniProt P15509+P32927); assay: binding affinity for GM-CSF receptor (as described by Park et al.)
T1 construct: endogenous in cells
T1 sequence (P15509 23-400): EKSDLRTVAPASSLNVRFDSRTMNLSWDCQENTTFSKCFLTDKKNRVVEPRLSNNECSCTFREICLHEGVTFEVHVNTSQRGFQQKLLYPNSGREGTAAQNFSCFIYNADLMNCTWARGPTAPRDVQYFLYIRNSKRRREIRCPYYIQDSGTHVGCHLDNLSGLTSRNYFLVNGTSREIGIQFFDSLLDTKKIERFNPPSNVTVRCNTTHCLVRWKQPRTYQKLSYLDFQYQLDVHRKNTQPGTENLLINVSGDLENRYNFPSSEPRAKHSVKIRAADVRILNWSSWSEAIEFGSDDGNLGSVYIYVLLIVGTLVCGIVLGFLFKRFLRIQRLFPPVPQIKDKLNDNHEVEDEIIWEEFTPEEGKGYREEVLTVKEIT
T1 sequence (P32927 17-897): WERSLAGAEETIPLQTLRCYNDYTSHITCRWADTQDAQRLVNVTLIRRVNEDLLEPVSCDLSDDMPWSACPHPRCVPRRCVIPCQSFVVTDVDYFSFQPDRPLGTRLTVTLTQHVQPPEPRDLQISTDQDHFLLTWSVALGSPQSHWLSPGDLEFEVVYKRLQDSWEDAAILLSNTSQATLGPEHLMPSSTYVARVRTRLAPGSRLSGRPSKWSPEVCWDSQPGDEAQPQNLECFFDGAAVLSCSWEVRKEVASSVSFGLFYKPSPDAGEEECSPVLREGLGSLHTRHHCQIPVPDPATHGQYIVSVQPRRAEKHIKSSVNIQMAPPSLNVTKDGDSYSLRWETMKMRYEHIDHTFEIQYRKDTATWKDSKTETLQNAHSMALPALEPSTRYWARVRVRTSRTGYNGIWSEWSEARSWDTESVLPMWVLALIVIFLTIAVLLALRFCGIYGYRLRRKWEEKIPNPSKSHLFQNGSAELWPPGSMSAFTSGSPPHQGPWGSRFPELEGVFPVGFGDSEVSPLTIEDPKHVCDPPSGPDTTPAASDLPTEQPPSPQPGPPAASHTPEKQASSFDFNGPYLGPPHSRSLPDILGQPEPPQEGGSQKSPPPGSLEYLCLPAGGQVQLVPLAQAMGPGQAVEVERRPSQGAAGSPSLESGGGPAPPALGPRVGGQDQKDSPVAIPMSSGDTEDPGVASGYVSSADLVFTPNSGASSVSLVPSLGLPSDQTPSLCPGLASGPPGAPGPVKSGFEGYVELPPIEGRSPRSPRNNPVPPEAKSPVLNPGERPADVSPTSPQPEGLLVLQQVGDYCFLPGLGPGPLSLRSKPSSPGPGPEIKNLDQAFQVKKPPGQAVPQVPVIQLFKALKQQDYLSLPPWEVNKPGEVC
Method: (§1) The binding affinity of the recombinant fusion protein for receptors for both GM-CSF and IL-3 were determined substantially as described by Park et al., J. Biol. Chem. 264:5420; 1989, and Park et al., Blood 74:56; 1989.

IL-3 receptor = molecular target: T2, IL-3 receptor (Homo sapiens, UniProt P26951+P32927); assay: binding affinity for IL-3 receptor (as described by Park et al.)
T2 construct: endogenous in cells
T2 sequence (P26951 19-378): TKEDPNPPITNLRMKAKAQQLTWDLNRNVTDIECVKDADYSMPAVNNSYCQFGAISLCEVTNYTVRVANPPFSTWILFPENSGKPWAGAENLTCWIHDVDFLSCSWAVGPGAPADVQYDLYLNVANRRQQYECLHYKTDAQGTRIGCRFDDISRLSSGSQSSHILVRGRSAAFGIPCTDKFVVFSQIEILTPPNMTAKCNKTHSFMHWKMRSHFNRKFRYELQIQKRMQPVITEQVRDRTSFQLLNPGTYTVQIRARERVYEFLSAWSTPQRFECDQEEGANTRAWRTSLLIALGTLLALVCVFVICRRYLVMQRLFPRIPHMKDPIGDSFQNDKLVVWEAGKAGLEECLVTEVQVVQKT
T2 sequence (P32927 17-897): T1 sequence (P32927 17-897)
Method: as §1

Substance: huGM-CSF[Leu^23 Asp^27 Glu^39 ]/Gly4 SerGly5 Ser/hulL-3[Pro^8 Asp^15 Asp^70 ] [recombinant fusion protein]
- potency (a unit is the amount of recombinant fusion protein that induces half-maximal proliferation in the TF-1 bioassay) (TF-1 cells): 2.1×10^8 U/mg
- binding affinity for GM-CSF receptor (GM-CSF receptor): 1e+10 M⁻¹
- binding affinity for IL-3 receptor (IL-3 receptor): 2.2e+10 M⁻¹
